According to ChEMBL document CHEMBL5131494, “Phe19 modification of HDM2-p53 PPI inhibitors to alleviate CYP3A4 metabolism/mechanism-based inhibition liability” (Bioorg Med Chem Lett, 2022):

What was measured:
[1] = molecular target: T1, Cytochrome P450 3A4 (Homo sapiens, UniProt P08684); assay: Inhibition of CYP3A4 (unknown origin) using testosterone as substrate pretreated with NADPH; format: ADME
[2] = molecular target: T1, Cytochrome P450 3A4; assay: Inhibition of CYP3A4 (unknown origin) using testosterone as substrate in presence of NADPH; format: ADME
[3] = molecular target: CYP3A4 (Homo sapiens, UniProt P08684); assay: Ratio of IC50 for CYP3A4 (unknown origin) co-incubated with NADPH to IC50 for CYP3A4 (unknown origin) pretreated with NADPH; settings: read-out: Ratio IC50
[4] = molecular target: Tumour suppressor p53/oncoprotein Mdm2 (Homo sapiens, UniProt Q00987); assay: Inhibition of HDM2-p53 (unknown origin) protein-protein interaction by fluorescence polarization peptide displacement assay
Sequence of Tumour suppressor p53/oncoprotein Mdm2 (P04637 whole entry): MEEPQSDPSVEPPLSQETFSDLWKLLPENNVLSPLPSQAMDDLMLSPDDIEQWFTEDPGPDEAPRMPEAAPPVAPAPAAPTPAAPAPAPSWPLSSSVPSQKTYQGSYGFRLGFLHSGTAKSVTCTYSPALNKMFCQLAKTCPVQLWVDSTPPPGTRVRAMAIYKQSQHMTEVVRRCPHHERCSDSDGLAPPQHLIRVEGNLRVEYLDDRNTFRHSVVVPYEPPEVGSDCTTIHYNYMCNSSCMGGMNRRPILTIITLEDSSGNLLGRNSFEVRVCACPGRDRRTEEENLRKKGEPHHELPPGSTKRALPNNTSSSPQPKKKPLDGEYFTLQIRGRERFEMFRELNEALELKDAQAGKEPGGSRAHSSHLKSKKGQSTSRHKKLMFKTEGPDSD
Sequence of Tumour suppressor p53/oncoprotein Mdm2 (Q00987 whole entry): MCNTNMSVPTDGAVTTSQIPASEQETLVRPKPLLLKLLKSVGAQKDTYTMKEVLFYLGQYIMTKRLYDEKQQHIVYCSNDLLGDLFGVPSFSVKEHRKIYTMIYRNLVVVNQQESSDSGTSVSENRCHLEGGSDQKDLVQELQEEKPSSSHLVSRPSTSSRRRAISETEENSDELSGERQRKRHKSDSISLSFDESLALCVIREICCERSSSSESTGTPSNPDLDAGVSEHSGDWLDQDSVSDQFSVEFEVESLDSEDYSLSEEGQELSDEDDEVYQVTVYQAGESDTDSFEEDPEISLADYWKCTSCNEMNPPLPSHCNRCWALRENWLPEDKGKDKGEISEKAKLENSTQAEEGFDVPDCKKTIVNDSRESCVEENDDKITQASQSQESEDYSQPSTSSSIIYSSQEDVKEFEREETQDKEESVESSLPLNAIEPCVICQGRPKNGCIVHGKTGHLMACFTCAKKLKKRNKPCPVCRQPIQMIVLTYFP

Sequence of CYP3A4 (P08684 whole entry): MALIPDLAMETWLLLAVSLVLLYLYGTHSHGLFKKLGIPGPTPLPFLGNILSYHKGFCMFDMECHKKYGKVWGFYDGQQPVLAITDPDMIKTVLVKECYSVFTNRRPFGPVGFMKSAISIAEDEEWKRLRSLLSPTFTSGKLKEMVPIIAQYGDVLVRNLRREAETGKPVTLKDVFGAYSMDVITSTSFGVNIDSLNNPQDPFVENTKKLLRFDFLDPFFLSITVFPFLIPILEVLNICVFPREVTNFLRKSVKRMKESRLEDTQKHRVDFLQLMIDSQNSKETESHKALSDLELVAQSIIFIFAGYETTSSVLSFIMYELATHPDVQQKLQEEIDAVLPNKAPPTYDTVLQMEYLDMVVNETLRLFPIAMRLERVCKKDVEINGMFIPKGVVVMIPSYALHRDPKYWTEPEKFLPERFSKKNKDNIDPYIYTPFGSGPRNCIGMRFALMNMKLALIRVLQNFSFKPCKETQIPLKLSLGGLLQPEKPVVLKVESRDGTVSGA
T1 sequence (P08684 whole entry): as above

Structure (SMILES) | IC50 [1] [nM] | IC50 [2] [nM] | IC50 shift [3] | IC50 [4] [nM]
CCC[C@H]1N(C(=O)c2cnccc2C(F)(F)F)CCC[C@@]1(Oc1csc(C(F)(F)F)c1)C(=O)N1CCN(c2ccccc2OCCCC(=O)O)CC1 | 900 | 20000 | 23 | 
CCC[C@H]1N(C(=O)c2cccnc2)CCC[C@@]1(Oc1csc(C(F)(F)F)c1)C(=O)N1CCN(c2ccccc2OCCO)CC1 |  |  |  | 1770
CCC[C@H]1N(C(=O)c2c(C(F)(F)F)ccnc2OCC(=O)NC)CCC[C@@]1(Oc1csc(C(F)(F)F)c1)C(=O)N1CCN(c2ccccc2OCCO)CC1 |  |  |  | 246
CCC[C@H]1N(C(=O)c2c(C(F)(F)F)ccnc2OCC(=O)O)CCC[C@@]1(Oc1csc(C(F)(F)F)c1)C(=O)N1CCN(c2ccccc2OCCO)CC1 | 4400 | 20000 | 5 | 25
CCC[C@H]1N(C(=O)c2c(C(F)(F)F)ccnc2O)CCC[C@@]1(Oc1csc(C(F)(F)F)c1)C(=O)N1CCN(c2ccccc2OC)CC1 | 9200 | 20000 | 2 | 32
CCC[C@H]1N(C(=O)c2ncccc2C(F)(F)F)CCC[C@@]1(Oc1csc(C(F)(F)F)c1)C(=O)N1CCN(c2ccccc2OCCO)CC1 | 200 | 35100 | 160 | 7
CCC[C@H]1N(C(=O)c2c(C(F)(F)F)ccnc2OCCO)CCC[C@@]1(Oc1csc(C(F)(F)F)c1)C(=O)N1CCN(c2ccccc2OCCO)CC1 | 1500 | 50000 | 33 | 103
CCC[C@H]1N(C(=O)c2cnccc2C(F)(F)F)CCC[C@@]1(Oc1csc(C(F)(F)F)c1)C(=O)N1CCN(c2ccccc2OCCO)CC1 | 300 | 6600 |  | 15
CCC[C@H]1N(C(=O)c2cnccc2C(F)(F)F)CCC[C@@]1(Oc1csc(C(F)(F)F)c1)C(=O)N1CCN(c2ccccc2OC)CC1 | 300 | 10000 | 33 | 30
C=CCNc1nccc(C(F)(F)F)c1C(=O)N1CCC[C@@](Oc2csc(C(F)(F)F)c2)(C(=O)N2CCN(c3ccccc3OCCO)CC2)[C@H]1CCC |  |  |  | 1000
CCC[C@H]1N(C(=O)c2c(C(F)(F)F)ccnc2OCCN(C)C)CCC[C@@]1(Oc1csc(C(F)(F)F)c1)C(=O)N1CCN(c2ccccc2OCCO)CC1 | 2000 | 20000 | 10 | 10
CCC[C@H]1N(C(=O)c2c(F)cccc2C(F)(F)F)CCC[C@@]1(Oc1csc(C(F)(F)F)c1)C(=O)N1CCN(c2ccccc2OCCO)CC1 | 400 | 50000 | 126 | 65
C=CCOc1nccc(C(F)(F)F)c1C(=O)N1CCC[C@@](Oc2csc(C(F)(F)F)c2)(C(=O)N2CCN(c3ccccc3OCCO)CC2)[C@H]1CCC | 5700 | 50000 | 9 | 28
CCC[C@H]1N(C(=O)c2cc(F)ccc2C(F)(F)F)CCC[C@@]1(Oc1csc(C(F)(F)F)c1)C(=O)N1CCN(c2ccccc2OCCO)CC1 | 600 | 50000 | 90 | 34
CCC[C@H]1N(C(=O)c2ccncc2C(F)(F)F)CCC[C@@]1(Oc1csc(C(F)(F)F)c1)C(=O)N1CCN(c2ccccc2OCCO)CC1 |  |  |  | 66
CCC[C@H]1N(C(=O)c2c(C(F)(F)F)ccnc2O)CCC[C@@]1(Oc1csc(C(F)(F)F)c1)C(=O)N1CCN(c2ccccc2OCCCC(=O)O)CC1 | 50000 | 50000 | 1 | 11
CCC[C@H]1N(C(=O)c2c(C(F)(F)F)ccc[n+]2[O-])CCC[C@@]1(Oc1csc(C(F)(F)F)c1)C(=O)N1CCN(c2ccccc2OCCO)CC1 | 1900 | 50000 | 26 | 22
CCC[C@H]1N(C(=O)c2cnccc2C)CCC[C@@]1(Oc1csc(C(F)(F)F)c1)C(=O)N1CCN(c2ccccc2OCCO)CC1 | 1200 | 6900 | 6 | 34
CCC[C@H]1N(C(=O)c2cccnc2C(F)(F)F)CCC[C@@]1(Oc1csc(C(F)(F)F)c1)C(=O)N1CCN(c2ccccc2OCCO)CC1 |  |  |  | 117
CCC[C@H]1N(C(=O)c2c(N)cccc2C(F)(F)F)CCC[C@@]1(Oc1csc(C(F)(F)F)c1)C(=O)N1CCN(c2ccccc2OCCO)CC1 |  |  |  | 6800
CCC[C@H]1N(C(=O)c2c(C(F)(F)F)ccnc2O)CCC[C@@]1(Oc1csc(C(F)(F)F)c1)C(=O)N1CCN(c2ccccc2OCCO)CC1 | 30000 | 30000 | 1 | 44
